# Experimental data reported in PubChem BioAssay (NCI).
#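 In this assay, cells in 96-well plates receive the compound at five concentrations for 48 hours. Endpoints are linearly interpolated between the surrounding concentrations. The concentration for 50% growth inhibition is given as GI50. TGI: concentration producing complete growth inhibition.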
# Legend:
# Test in all cases: NCI anticancer screen, dose series, 48 h
# HCT-116 colon = tested on: HCT-116 colon
# UACC-257 melanoma = tested on: UACC-257 melanoma
# MDA-MB-231 breast = tested on: MDA-MB-231 breast
# LOX IMVI melanoma = tested on: LOX IMVI melanoma
# OVCAR-3 ovarian = tested on: OVCAR-3 ovarian
# HOP-92 NSCLC = tested on: HOP-92 NSCLC
# CCRF-CEM leukemia = tested on: CCRF-CEM leukemia
# TK-10 renal = tested on: TK-10 renal
# SN12C renal = tested on: SN12C renal
# OVCAR-8 ovarian = tested on: OVCAR-8 ovarian
# U251 CNS = tested on: U251 CNS
# MALME-3M melanoma = tested on: MALME-3M melanoma
# HCC-2998 colon = tested on: HCC-2998 colon
# M14 melanoma = tested on: M14 melanoma
# NCI-H522 lung = tested on: NCI-H522 lung
# OVCAR-5 ovarian = tested on: OVCAR-5 ovarian
# SF-539 CNS = tested on: SF-539 CNS
# UO-31 renal = tested on: UO-31 renal
# BT-549 breast = tested on: BT-549 breast
# HOP-62 NSCLC = tested on: HOP-62 NSCLC
# COLO 205 colon = tested on: COLO 205 colon
# SK-MEL-2 melanoma = tested on: SK-MEL-2 melanoma
# MCF7 breast = tested on: MCF7 breast
# HS 578T breast = tested on: HS 578T breast
# NCI-H23 lung = tested on: NCI-H23 lung
# DU-145 prostate = tested on: DU-145 prostate
# NCI-H226 lung = tested on: NCI-H226 lung
# 786-0 renal = tested on: 786-0 renal
# SNB-75 CNS = tested on: SNB-75 CNS
# T-47D breast = tested on: T-47D breast
# A498 renal = tested on: A498 renal
# HCT-15 colon = tested on: HCT-15 colon
# HL-60(TB) leukemia = tested on: HL-60(TB) leukemia
# SK-MEL-5 melanoma = tested on: SK-MEL-5 melanoma
# KM12 colon = tested on: KM12 colon
# SNB-19 CNS = tested on: SNB-19 CNS
# NCI-H460 lung = tested on: NCI-H460 lung
# CAKI-1 renal = tested on: CAKI-1 renal
# A549 NSCLC = tested on: A549 NSCLC
# SK-OV-3 ovarian = tested on: SK-OV-3 ovarian
# NCI/ADR-RES ovarian = tested on: NCI/ADR-RES ovarian
# MOLT-4 leukemia = tested on: MOLT-4 leukemia
# ACHN renal = tested on: ACHN renal
# SK-MEL-28 melanoma = tested on: SK-MEL-28 melanoma
# SF-295 CNS = tested on: SF-295 CNS
# HT29 colon = tested on: HT29 colon
# SR leukemia = tested on: SR leukemia
# SF-268 CNS = tested on: SF-268 CNS
# OVCAR-4 ovarian = tested on: OVCAR-4 ovarian
# RPMI-8226 leukemia = tested on: RPMI-8226 leukemia
# EKVX NSCLC = tested on: EKVX NSCLC
# SW-620 colon = tested on: SW-620 colon
# PC-3 prostate = tested on: PC-3 prostate
# K-562 leukemia = tested on: K-562 leukemia
# IGROV1 ovarian = tested on: IGROV1 ovarian
# RXF 393 renal = tested on: RXF 393 renal
# MDA-MB-435 = tested on: MDA-MB-435
# UACC-62 melanoma = tested on: UACC-62 melanoma
# MDA-N = tested on: MDA-N
compound,measurement,setting,value
CC(C)=CCC[C@](C)(O)[C@H]1CC[C@]2(C)[C@@H]1CC[C@@H]1[C@@]3(C)CC/C(=N/O)C(C)(C)[C@@H]3CC[C@]12C,GI50,HCT-116 colon,4.13 µM
same,TGI,HCT-116 colon,27.2 µM
same,GI50,UACC-257 melanoma,29.5 µM
same,TGI,UACC-257 melanoma,> 100 µM
same,GI50,MDA-MB-231 breast,9.95 µM
same,TGI,MDA-MB-231 breast,37.4 µM
same,GI50,LOX IMVI melanoma,15.7 µM
same,TGI,LOX IMVI melanoma,83 µM
same,GI50,OVCAR-3 ovarian,10.6 µM
same,TGI,OVCAR-3 ovarian,39.2 µM
same,GI50,HOP-92 NSCLC,7.48 µM
same,TGI,HOP-92 NSCLC,26.2 µM
same,GI50,CCRF-CEM leukemia,14.2 µM
same,TGI,CCRF-CEM leukemia,> 100 µM
same,GI50,TK-10 renal,18 µM
same,TGI,TK-10 renal,63.5 µM
same,GI50,SN12C renal,8.48 µM
same,TGI,SN12C renal,35.2 µM
same,GI50,OVCAR-8 ovarian,12 µM
same,TGI,OVCAR-8 ovarian,86.2 µM
same,GI50,U251 CNS,12.8 µM
same,TGI,U251 CNS,49.4 µM
same,GI50,MALME-3M melanoma,8.25 µM
same,TGI,MALME-3M melanoma,32.6 µM
same,GI50,HCC-2998 colon,12.9 µM
same,TGI,HCC-2998 colon,50.8 µM
same,GI50,M14 melanoma,16.3 µM
same,TGI,M14 melanoma,> 100 µM
same,GI50,NCI-H522 lung,13.5 µM
same,TGI,NCI-H522 lung,99 µM
same,GI50,OVCAR-5 ovarian,22.2 µM
same,TGI,OVCAR-5 ovarian,> 100 µM
same,GI50,SF-539 CNS,24.3 µM
same,TGI,SF-539 CNS,> 100 µM
same,GI50,UO-31 renal,16.9 µM
same,TGI,UO-31 renal,> 100 µM
same,GI50,BT-549 breast,27.4 µM
same,TGI,BT-549 breast,> 100 µM
same,GI50,HOP-62 NSCLC,11.1 µM
same,TGI,HOP-62 NSCLC,40.9 µM
same,GI50,COLO 205 colon,11.4 µM
same,TGI,COLO 205 colon,> 100 µM
same,GI50,SK-MEL-2 melanoma,15.3 µM
same,TGI,SK-MEL-2 melanoma,60.5 µM
same,GI50,MCF7 breast,4.2 µM
same,TGI,MCF7 breast,> 100 µM
same,GI50,HS 578T breast,20.2 µM
same,TGI,HS 578T breast,> 100 µM
same,GI50,NCI-H23 lung,8.68 µM
same,TGI,NCI-H23 lung,41.7 µM
same,GI50,DU-145 prostate,13.8 µM
same,TGI,DU-145 prostate,> 100 µM
same,GI50,NCI-H226 lung,9.75 µM
same,TGI,NCI-H226 lung,47.5 µM
same,GI50,786-0 renal,14.3 µM
same,TGI,786-0 renal,69.3 µM
same,GI50,SNB-75 CNS,25.4 µM
same,TGI,SNB-75 CNS,> 100 µM
same,GI50,T-47D breast,2.86 µM
same,TGI,T-47D breast,88.1 µM
same,GI50,A498 renal,51.2 µM
same,TGI,A498 renal,> 100 µM
same,GI50,HCT-15 colon,10.6 µM
same,TGI,HCT-15 colon,> 100 µM
same,GI50,HL-60(TB) leukemia,8.69 µM
same,TGI,HL-60(TB) leukemia,> 100 µM
same,GI50,SK-MEL-5 melanoma,19.4 µM
same,TGI,SK-MEL-5 melanoma,> 100 µM
same,GI50,KM12 colon,12.5 µM
same,TGI,KM12 colon,> 100 µM
same,GI50,SNB-19 CNS,12.2 µM
same,TGI,SNB-19 CNS,> 100 µM
same,GI50,NCI-H460 lung,5.54 µM
same,TGI,NCI-H460 lung,> 100 µM
same,GI50,CAKI-1 renal,10.4 µM
same,TGI,CAKI-1 renal,50.7 µM
same,GI50,A549 NSCLC,5.86 µM
same,TGI,A549 NSCLC,62.9 µM
same,GI50,SK-OV-3 ovarian,25.7 µM
same,TGI,SK-OV-3 ovarian,> 100 µM
same,GI50,NCI/ADR-RES ovarian,18.9 µM
same,TGI,NCI/ADR-RES ovarian,> 100 µM
same,GI50,MOLT-4 leukemia,10.1 µM
same,TGI,MOLT-4 leukemia,> 100 µM
same,GI50,ACHN renal,11.6 µM
same,TGI,ACHN renal,35.7 µM
same,GI50,SK-MEL-28 melanoma,26.5 µM
same,TGI,SK-MEL-28 melanoma,> 100 µM
same,GI50,SF-295 CNS,12.2 µM
same,TGI,SF-295 CNS,42.3 µM
same,GI50,HT29 colon,3.41 µM
same,TGI,HT29 colon,20.8 µM
same,GI50,SR leukemia,7.65 µM
same,TGI,SR leukemia,49.4 µM
same,GI50,SF-268 CNS,21.5 µM
same,TGI,SF-268 CNS,> 100 µM
same,GI50,OVCAR-4 ovarian,13.9 µM
same,TGI,OVCAR-4 ovarian,> 100 µM
same,GI50,RPMI-8226 leukemia,7.68 µM
same,TGI,RPMI-8226 leukemia,> 100 µM
same,GI50,EKVX NSCLC,10.1 µM
same,TGI,EKVX NSCLC,> 100 µM
same,GI50,SW-620 colon,6.98 µM
same,TGI,SW-620 colon,> 100 µM
same,GI50,PC-3 prostate,7.87 µM
same,TGI,PC-3 prostate,35.9 µM
same,GI50,K-562 leukemia,6.06 µM
same,TGI,K-562 leukemia,> 100 µM
same,GI50,IGROV1 ovarian,20 µM
same,TGI,IGROV1 ovarian,76.6 µM
same,GI50,RXF 393 renal,8.23 µM
same,TGI,RXF 393 renal,38.4 µM
same,GI50,MDA-MB-435,21.4 µM
same,TGI,MDA-MB-435,> 100 µM
same,GI50,UACC-62 melanoma,17.8 µM
same,TGI,UACC-62 melanoma,> 100 µM
COC1CC(COCc2ccccc2)CC(OC)O1 (stereo not given),TGI,HCT-116 colon,> 100 µM
same,TGI,UACC-257 melanoma,> 100 µM
same,TGI,LOX IMVI melanoma,> 100 µM
same,TGI,OVCAR-3 ovarian,> 100 µM
same,TGI,HOP-92 NSCLC,> 100 µM
same,TGI,CCRF-CEM leukemia,0.44 µM
same,TGI,TK-10 renal,> 100 µM
same,TGI,SN12C renal,> 100 µM
same,TGI,OVCAR-8 ovarian,> 100 µM
same,TGI,HCC-2998 colon,> 100 µM
same,TGI,M14 melanoma,> 100 µM
same,TGI,NCI-H522 lung,> 100 µM
same,TGI,OVCAR-5 ovarian,> 100 µM
same,TGI,SF-539 CNS,> 100 µM
same,TGI,UO-31 renal,> 100 µM
same,TGI,HOP-62 NSCLC,> 100 µM
same,TGI,COLO 205 colon,> 100 µM
same,TGI,MCF7 breast,> 100 µM
same,TGI,HS 578T breast,> 100 µM
same,TGI,NCI-H23 lung,> 100 µM
same,TGI,DU-145 prostate,> 100 µM
same,TGI,NCI-H226 lung,> 100 µM
same,TGI,786-0 renal,> 100 µM
same,TGI,SNB-75 CNS,> 100 µM
same,TGI,T-47D breast,> 100 µM
same,TGI,A498 renal,> 100 µM
same,TGI,HCT-15 colon,> 100 µM
same,TGI,MDA-N,> 100 µM
same,TGI,HL-60(TB) leukemia,1.84 µM
same,TGI,SK-MEL-5 melanoma,> 100 µM
same,TGI,KM12 colon,> 100 µM
same,TGI,NCI-H460 lung,> 100 µM
same,TGI,CAKI-1 renal,> 100 µM
same,TGI,A549 NSCLC,> 100 µM
same,TGI,SK-OV-3 ovarian,> 100 µM
same,TGI,NCI/ADR-RES ovarian,> 100 µM
same,TGI,MOLT-4 leukemia,> 100 µM
same,TGI,ACHN renal,> 100 µM
same,TGI,SF-295 CNS,> 100 µM
same,TGI,HT29 colon,> 100 µM
same,TGI,SR leukemia,> 100 µM
same,TGI,SF-268 CNS,> 100 µM
same,TGI,RPMI-8226 leukemia,> 100 µM
same,TGI,EKVX NSCLC,> 100 µM
same,TGI,SW-620 colon,> 100 µM
same,TGI,K-562 leukemia,> 100 µM
same,TGI,RXF 393 renal,> 100 µM
same,TGI,MDA-MB-435,> 100 µM
same,TGI,UACC-62 melanoma,> 100 µM
